In general, AC50 refers to the concentration giving half of the maximal activity seen.

40 compounds from patent US20250171438A1 (Agios Pharmaceuticals, Inc., priority 2022, published 2025) can be followed below.

One test concerns the target T1, human PAH with the R408W mutation (Homo sapiens, UniProt P00439, R408W).
T1 construct: expressed in transfected cells
T1 sequence (P00439 1-452 R408W): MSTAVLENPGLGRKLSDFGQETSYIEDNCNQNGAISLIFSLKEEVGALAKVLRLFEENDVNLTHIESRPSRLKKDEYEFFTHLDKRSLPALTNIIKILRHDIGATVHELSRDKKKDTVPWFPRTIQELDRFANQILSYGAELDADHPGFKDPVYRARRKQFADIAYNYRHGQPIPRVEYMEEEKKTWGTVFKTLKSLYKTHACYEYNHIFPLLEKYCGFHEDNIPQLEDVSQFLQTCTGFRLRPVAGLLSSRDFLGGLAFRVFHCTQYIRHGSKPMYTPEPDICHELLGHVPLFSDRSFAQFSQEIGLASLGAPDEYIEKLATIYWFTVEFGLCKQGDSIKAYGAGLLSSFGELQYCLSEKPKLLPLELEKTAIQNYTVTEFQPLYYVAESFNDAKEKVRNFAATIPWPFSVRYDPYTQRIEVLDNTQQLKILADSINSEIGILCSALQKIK
The experiment in a line: Cell Based Phenylalanine Flux Assay. The arrangement: scale not given here. The settings on record: A375 cells expressing human R408W PAH; 24 hrs compound incubation; 13C-Tyrosine by LC-MS; average where tested multiple times; read-out: AC50.
`COc1cccc(CCCC(=O)N2CCc3[nH]cnc3[C@H]2c2nc3ccccc3[nH]2)c1` [Example 919, (S)-1-(4-(1H-benzo[d]imidazol-2-yl)-6,7-dihydro-1H-imidazo[4,5-c]pyridin-5(4H)-yl)-4-(3-methoxyphenyl)butan-1-one]: the AC50 lay in the range of 1 to 5 µM. On the same count and under the same terms, to `Cc1cccc2nc([C@@H]3c4nc[nH]c4CCN3C(=O)c3cncs3)sc12` [Example 1316, (S)-(4-(7-methylbenzo[d]thiazol-2-yl)-6,7-dihydro-1H-imidazo[4,5-c]pyridin-5(4H)-yl)(thiazol-5-yl)methanone] belongs < 0.5 µM; to `O=C(c1cnn2ccccc12)N1CCc2[nH]cnc2[C@H]1c1nc2ccc(F)cc2s1` [Example 1099, (S)-(4-(6-fluorobenzo[d]thiazol-2-yl)-6,7-dihydro-1H-imidazo[4,5-c]pyridin-5(4H)-yl)(pyrazolo[1,5-a]pyridin-3-yl)methanone], 1 to 5 µM. In the case of `Nc1cc(C(=O)N2CCc3[nH]cnc3[C@@H]2c2nc3c(F)cccc3s2)n(C(F)F)n1` [Example 2054, (R)-(3-amino-1-(difluoromethyl)-1H-pyrazol-5-yl)(4-(4-fluorobenzo[d]thiazol-2-yl)-6,7-dihydro-1H-imidazo[4,5-c]pyridin-5(4H)-yl)methanone], the AC50 is > 5 µM.

On to `O=C(Cc1nccs1)N1CCc2[nH]cnc2[C@@H]1c1nc2cccc(Br)c2s1` [Example 1175, (R)-1-(4-(7-bromobenzo[d]thiazol-2-yl)-6,7-dihydro-1H-imidazo[4,5-c]pyridin-5(4H)-yl)-2-(thiazol-2-yl)ethanone], for which the AC50 fell in the range of 1 to 5 µM. Still for that read-out and setting: to `O=C(c1cnn(C(F)F)c1)N1CCc2[nH]cnc2[C@H]1c1nc2ccccc2s1` [Example 1409] belongs 0.5 to 1 µM; to `c1cnc(N2CCc3[nH]cnc3[C@@H]2c2nc3ccccc3s2)nc1` [Example 1437, (R)-2-(5-(pyrimidin-2-yl)-4,5,6,7-tetrahydro-1H-imidazo[4,5-c]pyridin-4-yl)benzo[d]thiazole], 1 to 5 µM; to `O=C(c1cnn(CC(F)(F)F)c1C(F)F)N1CCc2[nH]cnc2[C@@H]1c1nc2ccccc2s1` [Example 1974, (R)-(4-(benzo[d]thiazol-2-yl)-6,7-dihydro-1H-imidazo[4,5-c]pyridin-5(4H)-yl)(5-(difluoromethyl)-1-(2,2,2-trifluoroethyl)-1H-pyrazol-4-yl)methanone], 1 to 5 µM. Regarding `N#Cc1nn2cc(Br)ccc2c1C(=O)N1CCc2[nH]cnc2[C@@H]1c1nc2ccccc2s1` [Example 1780, (R)-3-(4-(benzo[d]thiazol-2-yl)-4,5,6,7-tetrahydro-1H-imidazo[4,5-c]pyridine-5-carbonyl)-6-bromopyrazolo[1,5-a]pyridine-2-carbonitrile], the AC50 was 1 to 5 µM. `O=C(c1oc(N2CCC(F)CC2)nc1C(F)F)N1CCc2[nH]cnc2[C@H]1c1nc2ccccc2s1` [Example 1707]: the AC50 was < 0.5 µM.

As for `O=C(c1cnn2ccc(Cl)cc12)N1CCc2[nH]cnc2[C@@H]1c1nc2cc(F)ccc2s1` [Example 1168, (R)-(5-chloropyrazolo[1,5-a]pyridin-3-yl)(4-(5-fluorobenzo[d]thiazol-2-yl)-6,7-dihydro-1H-imidazo[4,5-c]pyridin-5(4H)-yl)methanone], the AC50 was 1 to 5 µM. Turning to `O=C(c1sc(N2CCOCC2)nc1C(F)(F)F)N1CCc2[nH]cnc2[C@H]1c1nc2c(F)cccc2s1` [Example 1633, (S)-(4-(4-fluorobenzo[d]thiazol-2-yl)-6,7-dihydro-1H-imidazo[4,5-c]pyridin-5(4H)-yl)(2-morpholino-4-(trifluoromethyl)thiazol-5-yl)methanone], the AC50 is < 0.5 µM. Regarding `O=C(c1cnn(C2CC2)c1C(F)F)N1CCc2[nH]cnc2[C@@H]1c1nc2c(F)cccc2s1` [Example 2000, (R)-(1-cyclopropyl-5-(difluoromethyl)-1H-pyrazol-4-yl)(4-(4-fluorobenzo[d]thiazol-2-yl)-6,7-dihydro-1H-imidazo[4,5-c]pyridin-5(4H)-yl)methanone], the half-maximal activity concentration (AC50) was 1 to 5 µM. As to `O=C(c1n[nH]c2ccccc12)N1CCc2[nH]cnc2[C@@H]1c1nc2ccccc2s1` [Example 1050, (R)-(4-(benzo[d]thiazol-2-yl)-6,7-dihydro-1H-imidazo[4,5-c]pyridin-5(4H)-yl)(1H-indazol-3-yl)methanone], the AC50 is > 5 µM.

Regarding `Cc1ccc2sc([C@@H]3c4nc[nH]c4CCN3C(=O)c3cncs3)nc2c1` [Example 1293, (S)-(4-(5-methylbenzo[d]thiazol-2-yl)-6,7-dihydro-1H-imidazo[4,5-c]pyridin-5(4H)-yl)(thiazol-5-yl)methanone], the AC50 is 0.5 to 1 µM.

With `Cn1nc(C(C)(C)C#N)nc1C(=O)N1CCc2[nH]cnc2[C@H]1c1nc2ccccc2s1` [Example 2045, (S)-2-(5-(4-(benzo[d]thiazol-2-yl)-4,5,6,7-tetrahydro-1H-imidazo[4,5-c]pyridine-5-carbonyl)-1-methyl-1H-1,2,4-triazol-3-yl)-2-methylpropanenitrile], the half-maximal activity concentration (AC50) was in the range of 1 to 5 µM.

For `O=C(c1cnn2cc(-c3ccccc3)ccc12)N1CCc2[nH]cnc2[C@H]1c1nc2ccccc2s1` [Example 1209], the AC50 was 1 to 5 µM.

`CC(C)(c1nc(C(F)F)c(C(=O)N2CCc3[nH]cnc3[C@@H]2c2nc3c(F)cccc3s2)o1)S(C)(=O)=O` [Example 2006, (R)-(4-(difluoromethyl)-2-(2-(methylsulfonyl)propan-2-yl)oxazol-5-yl)(4-(4-fluorobenzo[d]thiazol-2-yl)-6,7-dihydro-1H-imidazo[4,5-c]pyridin-5(4H)-yl)methanone]: the AC50 was 1 to 5 µM. Turning to `Cc1ocnc1CC(=O)N1CCc2[nH]cnc2[C@@H]1c1nc2ccccc2s1` [Example 1532, (R)-1-(4-(benzo[d]thiazol-2-yl)-6,7-dihydro-1H-imidazo[4,5-c]pyridin-5(4H)-yl)-2-(5-methyloxazol-4-yl)ethanone], the AC50 was > 5 µM.

Regarding `O=C(c1ccnn1C(F)(F)F)N1CCc2[nH]cnc2[C@H]1c1nc2c(F)cccc2s1` [Example 2099, (S)-(4-(4-fluorobenzo[d]thiazol-2-yl)-6,7-dihydro-1H-imidazo[4,5-c]pyridin-5(4H)-yl)(1-(trifluoromethyl)-1H-pyrazol-5-yl)methanone], the AC50 is < 0.5 µM. With `O=C(c1nnc(-c2ccccn2)o1)N1CC2(CC2)c2[nH]cnc2[C@H]1c1nc2ccccc2s1` [Example 1684, (S)-(4′-(benzo[d]thiazol-2-yl)spiro[cyclopropane-1,7′-imidazo[4,5-c]pyridin]-5′(1′H,4′H,6′H)-yl)(5-(pyridin-2-yl)-1,3,4-oxadiazol-2-yl)methanone], the AC50 was < 0.5 µM.

Staying with this test, now noted: A375 cells expressing human R408W PAH; 24 hrs with compound; 13C-Tyrosine by LC-MS; average where tested multiple times.
Consider `O=C(c1ocnc1C(F)F)N1CCc2[nH]cnc2C1c1nc2ccccc2[nH]1` (stereo not shown), for which the AC50 entry is reported as “E, E”. Same read-out and setting: next, `O=C(c1c(C(F)F)nn2cc(Br)ccc12)N1CCc2[nH]cnc2C1c1nc2ccccc2s1` (stereo not shown): “E, E”.

Staying with this test, now noted: A375 cells expressing human R408W PAH; 24 hrs with compound; 13C-Tyrosine by LC-MS; average where tested multiple times; read-out: AC50.
With `O=C(Cc1nccs1)N1CCc2[nH]cnc2[C@@H]1c1nc2ccc(Br)cc2[nH]1` (single isomer, unassigned), the AC50 was > 5 µM. The same measure, in the same setting: next, `Cc1ccn2ncc(C(=O)N3CCc4[nH]cnc4[C@H]3c3nc4ccccc4[nH]3)c2c1` [(S)-(4-(1H-benzo[d]imidazol-2-yl)-6,7-dihydro-1H-imidazo[4,5-c]pyridin-5(4H)-yl)(5-methylpyrazolo[1,5-a]pyridin-3-yl)methanone]: 1 to 5 µM; `O=C(c1nc2ccccc2s1)N1CCc2[nH]cnc2C1c1nc2ccc(F)cc2[nH]1` (stereo not shown): 1 to 5 µM; `O=C(c1cncs1)N1CCc2[nH]cnc2C1c1nc2ccc(F)cc2s1` (stereo not shown): 1 to 5 µM.

Consider `CS(=O)(=O)c1ncoc1C(=O)N1CCc2[nH]cnc2C1c1nc2ccccc2s1` (stereo not shown), for which the AC50 is 1 to 5 µM. Regarding `NC(=O)c1ncoc1C(=O)N1CCc2[nH]cnc2C1c1nc2ccccc2s1` (stereo not shown), the AC50 was > 5 µM.

Take `CN(C)CCc1nnc(C(=O)N2CCc3[nH]cnc3C2c2nc3ccccc3s2)o1` (stereo not shown): the half-maximal activity concentration (AC50) was 1 to 5 µM.

On to `COCc1nnc(C(=O)N2CCc3[nH]cnc3C2c2nc3ccccc3s2)o1` (stereo not shown), for which the AC50 lay in the range of 1 to 5 µM. Still for that read-out and setting: to `COCc1cc(C(=O)N2CCc3[nH]cnc3C2c2nc3c(F)cccc3s2)[nH]n1` (stereo not shown) belongs > 5 µM. Still for that read-out and setting: to `O=C(c1ccn[nH]1)N1CCc2[nH]cnc2C1c1nc2ccccc2s1` (stereo not shown) belongs > 5 µM; to `Cc1nnc(CCC(=O)N2CCc3[nH]cnc3C2c2nc3cccc(F)c3s2)s1` (stereo not shown), > 5 µM; to `O=C(c1nccs1)N1CCc2[nH]cnc2C1c1nc2ccc(Cl)cc2s1` (stereo not shown), > 5 µM. The same measure, in the same setting: to `CC(C)(O)c1nc(C(=O)N2CCc3[nH]cnc3C2c2nc3c(F)cccc3s2)no1` (stereo not shown) belongs > 5 µM; to `Cc1nc(-c2ccccn2)oc1C(=O)N1CC(C)c2[nH]cnc2C1c1nc2ccccc2s1` (stereo not shown), 1 to 5 µM. `O=C(c1nnc(CCCN2CC(F)C2)o1)N1CCc2[nH]cnc2C1c1nc2ccccc2s1` (stereo not shown): the AC50 was in the range of 1 to 5 µM. The same measure, in the same setting: to `O=C(C1CN(CC(F)(F)F)C1)N1CCc2[nH]cnc2[C@H]1c1nc2ccccc2s1` (single isomer, unassigned) belongs 1 to 5 µM. The same measure, in the same setting: next, `O=C(Cc1nc(C(F)(F)F)cs1)N1CCc2[nH]cnc2[C@H]1c1nc2ccccc2[nH]1` [(S)-1-(4-(1H-benzo[d]imidazol-2-yl)-1,4,6,7-tetrahydro-5H-imidazo[4,5-c]pyridin-5-yl)-2-(4-(trifluoromethyl)thiazol-2-yl)ethan-1-one]: 1 to 5 µM.
